Assay results reported in article PMC12195982, “Design, Synthesis, and In Vitro Evaluation of 4-(Arylchalcogenyl)methyl)-1H-1,2,3-triazol-1-yl-menadione: Exploring Their Potential Against Tuberculosis” (Pharmaceuticals, 2025).
In brackets after ≈: the same amount, converted by molar mass.

Test system: INH- and RIF-resistant Mtb (strain T113/09, KatG and rpoB mutation)
Type: cell-based, Mycobacterium tuberculosis

Compound | MIC INH/RIFR-Mtb [µg/mL] | fold more potent than INH
CC1=C(Cn2cc(C[Se]c3ccccc3)nn2)C(=O)c2ccccc2C1=O [Compound 9a, 2-methyl-3-((4-((phenylselanyl)methyl)-1H-1,2,3-triazolyl)methyl)naphthalene-1,4-dione] | 3 (≈ 7.1 µM) | at least 7 fold
CC1=C(Cn2cc(C[Se]c3ccc(Cl)cc3)nn2)C(=O)c2ccccc2C1=O [Compound 9b, 2-((4-(((4-chlorophenyl)selanyl)methyl)-1H-1,2,3-triazolyl)methyl)-3-methylnaphthalene-1,4-dione] | ≤3 | at least 7 fold
CC1=C(Cn2cc(C[Se]c3cccc(C(F)(F)F)c3)nn2)C(=O)c2ccccc2C1=O [Compound 9c] | >99 | –
CC1=C(C(c2ccccc2)n2cc(C[Se]c3ccccc3)nn2)C(=O)c2ccccc2C1=O (stereo not shown) [Compound 9g, 2-methyl-3-(phenyl(4-((phenylselanyl)methyl)-1H-1,2,3-triazolyl)methyl)naphthalene-1,4-dione] | ≤3 | at least 7 fold
CC1=C(C(c2ccc(C)cc2)n2cc(C[Se]c3ccccc3)nn2)C(=O)c2ccccc2C1=O (stereo not shown) [Compound 9h, 2-methyl-3-((4-((phenylselanyl)methyl)-1H-1,2,3-triazolyl)(p-methylphenyl)methyl) naphthalene-1,4-dione] | ≤3 | at least 7 fold
NNC(=O)c1ccncc1 [INH, isoniazid, reference compound] | 8 (≈ 58.3 µM) | –
